Where two headings read alike, the source gives them in different places.

Experiment [1] concerns HepG2 cell line. Description: In vitro cell proliferation assay (MTT), HepG2. In kind it is cell-based. As to conditions: Homo sapiens, read-out: EC50, anti-proliferative activity. Here is the method: (§1) 2) In Vitro Cell Proliferation Assays (Table 22 to Table 35)
(§2) Cancer cell lines (5×10^3 cells per well) or HUVEC (1×10^4 cells per well) or HRMEC (1×10^4 cells per well) were distributed in 96-well plates and incubating in duplicate with escalating concentrations (10 nM to 3 μM) of compounds for 72 hr. Cell proliferation was measured using MTT (3[4,5-dimethylthiazol-2-yl]-2,5-diphenyltetrazolium bromide).

Experiment [2] has as its target T1, EGFR (ErbB1) (Homo sapiens, UniProt P00533).
T1 construct: purchased Invitrogen
Description: In vitro kinase assay (Z'-LYTE), EGFR (ErbB1). In kind it is biochemical. To be noted: read-out: % of inhibition of the kinase compared to the control. As for the experimental part:
(§3) 1) In Vitro Kinase Assays (Table 10 to Table 21)
(§4) The inhibitory activity of the compounds on several kinases including BRAF, EGFR (ErbB1), EGFR (ErbB1) T790M L858R, FGFR2, KDR (VEGFR2), PDGFRA (PDGFR alpha), SRC and other was evaluated by Invitrogen using the Z′-LYTE® technology. Briefly, the Z′-LYTE® biochemical assay employs a fluorescence-based, coupled-enzyme format and is based on the differential sensitivity of phosphorylated and non-phosphorylated peptides to proteolytic cleavage. The peptide substrate is labeled with two fluorophores—one at each end—that make up a FRET pair. A ratiometric method, which calculates the ratio (the Emission Ratio) of donor emission to acceptor emission after excitation of the donor fluorophore at 400 nm, is used to quantitate reaction progress.
(§5) The compounds are screened in 1% DMSO (final) in the well. For 10 point titrations, 3-fold serial dilutions are conducted from the starting concentration. All Peptide/Kinase Mixtures are diluted to a 2× working concentration in the appropriate Kinase Buffer. All ATP Solutions are diluted to a 4× working concentration in Kinase Buffer (50 mM HEPES pH 7.5, 0.01% BRIJ-35, 10 mM MgCl2, 1 mM EGTA). ATP Km apparent is previously determined using a Z′-LYTE® assay.
(§6) Each compound was incubated at a concentration of 100 nM (excepted to test the activity against ABL and ABL T315I for which the compounds were incubated at a concentration of 10 μM) and the tables 10 to 21 summarize the results obtained showing the inhibitory power of a compound.

The target in experiment [3] is T2, FGFR2 (Homo sapiens, UniProt P21802).
T2 construct: purchased Invitrogen
T2 sequence (P21802 22-821): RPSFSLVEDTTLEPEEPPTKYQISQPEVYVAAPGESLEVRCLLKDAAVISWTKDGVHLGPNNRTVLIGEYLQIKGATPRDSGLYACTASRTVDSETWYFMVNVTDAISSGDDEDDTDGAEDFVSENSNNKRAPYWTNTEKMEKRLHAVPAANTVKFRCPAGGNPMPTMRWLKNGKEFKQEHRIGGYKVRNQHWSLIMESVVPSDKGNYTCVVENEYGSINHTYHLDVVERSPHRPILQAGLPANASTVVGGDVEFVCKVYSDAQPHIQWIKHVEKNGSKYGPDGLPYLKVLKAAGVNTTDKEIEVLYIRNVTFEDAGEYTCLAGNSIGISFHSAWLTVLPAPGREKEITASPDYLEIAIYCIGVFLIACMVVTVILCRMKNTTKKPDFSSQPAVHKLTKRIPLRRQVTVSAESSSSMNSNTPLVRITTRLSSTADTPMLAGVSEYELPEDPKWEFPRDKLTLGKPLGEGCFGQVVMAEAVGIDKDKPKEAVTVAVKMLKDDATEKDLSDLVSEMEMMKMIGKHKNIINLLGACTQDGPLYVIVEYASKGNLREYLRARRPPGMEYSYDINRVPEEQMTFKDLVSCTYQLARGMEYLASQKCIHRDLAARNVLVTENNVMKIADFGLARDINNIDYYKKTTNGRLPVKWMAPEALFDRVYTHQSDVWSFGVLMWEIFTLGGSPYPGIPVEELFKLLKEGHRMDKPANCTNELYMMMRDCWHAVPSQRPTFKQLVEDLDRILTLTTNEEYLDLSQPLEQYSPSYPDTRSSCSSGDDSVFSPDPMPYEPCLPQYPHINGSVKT
As to the kind of experiment: In vitro kinase assay (Z'-LYTE), FGFR2. In kind it is biochemical. To be noted: read-out: % of inhibition of the kinase compared to the control. Here is the method:
as §3, §4, §5, §6

The target of experiment [4] is T3, BRAF (Homo sapiens, UniProt P15056).
T3 construct: purchased Invitrogen
T3 sequence (P15056 whole entry): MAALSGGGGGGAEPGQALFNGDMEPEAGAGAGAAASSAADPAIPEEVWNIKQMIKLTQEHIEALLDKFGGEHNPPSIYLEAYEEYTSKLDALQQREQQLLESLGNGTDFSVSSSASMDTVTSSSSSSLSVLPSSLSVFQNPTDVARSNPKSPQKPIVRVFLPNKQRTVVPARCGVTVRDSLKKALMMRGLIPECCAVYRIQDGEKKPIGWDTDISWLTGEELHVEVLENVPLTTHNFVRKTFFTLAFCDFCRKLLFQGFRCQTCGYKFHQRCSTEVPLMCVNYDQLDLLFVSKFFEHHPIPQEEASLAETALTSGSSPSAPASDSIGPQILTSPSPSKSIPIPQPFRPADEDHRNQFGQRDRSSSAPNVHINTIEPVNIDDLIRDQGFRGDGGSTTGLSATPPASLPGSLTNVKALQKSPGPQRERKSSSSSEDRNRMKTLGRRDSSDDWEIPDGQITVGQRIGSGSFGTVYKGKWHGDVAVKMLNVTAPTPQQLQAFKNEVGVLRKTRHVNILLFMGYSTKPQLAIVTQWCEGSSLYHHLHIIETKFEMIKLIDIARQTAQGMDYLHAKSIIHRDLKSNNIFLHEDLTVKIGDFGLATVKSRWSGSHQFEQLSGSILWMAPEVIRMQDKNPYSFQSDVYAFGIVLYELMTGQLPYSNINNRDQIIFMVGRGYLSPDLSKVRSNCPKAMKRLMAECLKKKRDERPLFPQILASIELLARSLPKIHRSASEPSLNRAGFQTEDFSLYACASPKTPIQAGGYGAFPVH
Description: In vitro kinase assay (Z'-LYTE), BRAF. The format is biochemical. As to conditions: read-out: % of inhibition of the kinase compared to the control. Here is the method:
as §3, §4, §5, §6

Experiment [5] has as its target T4, SRC (Homo sapiens, UniProt P12931).
T4 construct: purchased Invitrogen
As to the kind of experiment: In vitro kinase assay (Z'-LYTE), SRC. The format is biochemical. As to conditions: read-out: % of inhibition of the kinase compared to the control. As for the experimental part: as §3, §4, §5, §6

Experiment [6] concerns the target T5, PDGFRA (PDGFR alpha) (Homo sapiens, UniProt P16234).
T5 construct: purchased Invitrogen
Description: In vitro kinase assay (Z'-LYTE), PDGFRA. In kind it is biochemical. To be noted: read-out: % of inhibition of the kinase compared to the control. As for the experimental part: as §3, §4, §5, §6

The target of experiment [7] is T6, KDR (VEGFR2) (Homo sapiens, UniProt P35968).
T6 construct: purchased Invitrogen
As to the kind of experiment: In vitro kinase assay (Z'-LYTE), KDR (VEGFR2). In kind it is biochemical. To be noted: read-out: % of inhibition of the kinase compared to the control. As for the experimental part:
as §3, §4, §5, §6

Experiment [8] deals with HUVEC. Description: In vitro cell proliferation assay (MTT), HUVEC. In kind it is cell-based. As to conditions: Homo sapiens, read-out: EC50, anti-proliferative activity. Here is the method: as §1, §2

T5 sequence (P16234 24-1089): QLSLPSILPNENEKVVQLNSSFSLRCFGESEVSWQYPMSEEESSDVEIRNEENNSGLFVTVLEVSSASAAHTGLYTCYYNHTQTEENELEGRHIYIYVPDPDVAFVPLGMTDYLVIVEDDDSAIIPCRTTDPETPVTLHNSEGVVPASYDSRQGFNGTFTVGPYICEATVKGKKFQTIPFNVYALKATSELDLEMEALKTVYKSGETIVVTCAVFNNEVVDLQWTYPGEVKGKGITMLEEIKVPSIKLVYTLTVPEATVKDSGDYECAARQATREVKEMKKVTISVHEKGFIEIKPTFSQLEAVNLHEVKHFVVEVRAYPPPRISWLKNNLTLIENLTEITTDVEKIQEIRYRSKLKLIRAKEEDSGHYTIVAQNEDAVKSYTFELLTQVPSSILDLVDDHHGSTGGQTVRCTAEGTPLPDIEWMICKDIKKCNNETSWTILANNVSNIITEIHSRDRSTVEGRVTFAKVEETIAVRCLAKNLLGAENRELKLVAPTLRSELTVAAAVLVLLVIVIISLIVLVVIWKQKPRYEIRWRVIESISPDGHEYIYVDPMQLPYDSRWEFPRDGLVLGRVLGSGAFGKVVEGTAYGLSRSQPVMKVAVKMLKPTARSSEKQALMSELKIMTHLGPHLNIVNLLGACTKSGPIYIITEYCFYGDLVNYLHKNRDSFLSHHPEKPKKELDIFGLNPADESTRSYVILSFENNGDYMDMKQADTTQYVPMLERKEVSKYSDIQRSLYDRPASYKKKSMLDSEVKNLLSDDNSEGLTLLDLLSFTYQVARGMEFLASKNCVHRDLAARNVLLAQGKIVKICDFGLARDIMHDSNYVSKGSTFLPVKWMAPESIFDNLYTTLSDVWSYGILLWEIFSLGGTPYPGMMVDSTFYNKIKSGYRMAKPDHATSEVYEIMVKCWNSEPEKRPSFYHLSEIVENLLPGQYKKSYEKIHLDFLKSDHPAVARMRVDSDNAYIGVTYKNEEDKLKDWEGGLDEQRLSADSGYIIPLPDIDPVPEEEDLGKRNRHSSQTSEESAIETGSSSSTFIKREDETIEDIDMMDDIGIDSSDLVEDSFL
T1 sequence (P00533 25-1210): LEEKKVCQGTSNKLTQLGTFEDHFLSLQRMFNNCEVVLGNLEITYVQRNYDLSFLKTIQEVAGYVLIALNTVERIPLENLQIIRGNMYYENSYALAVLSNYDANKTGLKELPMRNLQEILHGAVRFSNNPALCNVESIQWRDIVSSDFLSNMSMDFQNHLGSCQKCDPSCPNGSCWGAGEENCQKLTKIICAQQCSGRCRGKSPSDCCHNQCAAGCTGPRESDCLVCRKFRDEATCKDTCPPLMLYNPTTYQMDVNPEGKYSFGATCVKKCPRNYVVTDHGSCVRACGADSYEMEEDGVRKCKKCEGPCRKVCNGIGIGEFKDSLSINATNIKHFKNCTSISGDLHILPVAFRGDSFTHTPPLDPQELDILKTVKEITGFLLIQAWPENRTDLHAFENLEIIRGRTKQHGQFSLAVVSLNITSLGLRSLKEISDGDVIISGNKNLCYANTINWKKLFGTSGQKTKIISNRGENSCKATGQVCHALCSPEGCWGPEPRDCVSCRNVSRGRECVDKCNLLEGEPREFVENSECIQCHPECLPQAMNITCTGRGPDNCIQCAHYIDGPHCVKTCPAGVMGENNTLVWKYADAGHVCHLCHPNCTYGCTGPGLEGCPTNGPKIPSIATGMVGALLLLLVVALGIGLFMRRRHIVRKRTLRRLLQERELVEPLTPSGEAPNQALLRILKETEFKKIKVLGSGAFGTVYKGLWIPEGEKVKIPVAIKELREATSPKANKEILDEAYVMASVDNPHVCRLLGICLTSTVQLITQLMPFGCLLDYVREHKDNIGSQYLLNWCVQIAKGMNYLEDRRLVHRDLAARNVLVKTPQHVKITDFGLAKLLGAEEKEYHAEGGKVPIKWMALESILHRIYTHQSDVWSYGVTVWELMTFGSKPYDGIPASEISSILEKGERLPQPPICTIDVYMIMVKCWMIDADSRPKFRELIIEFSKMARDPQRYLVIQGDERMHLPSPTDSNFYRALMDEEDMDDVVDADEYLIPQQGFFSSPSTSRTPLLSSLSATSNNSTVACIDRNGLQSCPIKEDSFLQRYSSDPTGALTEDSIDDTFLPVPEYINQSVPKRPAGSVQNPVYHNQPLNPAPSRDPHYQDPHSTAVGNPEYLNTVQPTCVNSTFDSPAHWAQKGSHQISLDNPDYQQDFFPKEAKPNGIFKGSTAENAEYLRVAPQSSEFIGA
T4 sequence (P12931 whole entry): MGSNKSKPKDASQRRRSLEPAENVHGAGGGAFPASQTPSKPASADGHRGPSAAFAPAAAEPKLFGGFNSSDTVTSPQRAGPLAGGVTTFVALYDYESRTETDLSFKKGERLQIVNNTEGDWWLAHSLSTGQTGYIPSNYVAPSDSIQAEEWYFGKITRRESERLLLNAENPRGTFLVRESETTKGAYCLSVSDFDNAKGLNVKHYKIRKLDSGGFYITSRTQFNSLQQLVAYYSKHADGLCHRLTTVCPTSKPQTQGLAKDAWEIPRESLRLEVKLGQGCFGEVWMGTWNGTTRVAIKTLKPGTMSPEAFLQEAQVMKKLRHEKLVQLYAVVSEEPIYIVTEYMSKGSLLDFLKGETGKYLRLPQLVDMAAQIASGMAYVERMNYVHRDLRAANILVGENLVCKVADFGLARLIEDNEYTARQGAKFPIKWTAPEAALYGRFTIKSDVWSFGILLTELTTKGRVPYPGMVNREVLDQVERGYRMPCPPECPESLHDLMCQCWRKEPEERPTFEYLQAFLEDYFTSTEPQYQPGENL

In general, EC50 refers to the concentration needed to bring the measured effect to its halfway point. By inhibition is commonly meant how much of the control response was suppressed. In the case of `CC(=O)c1cc2cc(NCc3cc(NC(=O)c4ccnc(C)c4)ccc3C)cnc2[nH]1` [OR0889, N-{3-[(2-Acetyl-1H-pyrrolo[2,3-b]pyridin-5-ylamino)-methyl]-4-methyl-phenyl}-2-methyl-isonicotinamide], the EC50 in experiment [1] (HepG2, 72 hr, MTT) was at least 1 µM; in experiment [8] (72 h) it was 0.1 to 1 µM. For the same compound, the inhibition at 0.1 µM was below 50% in experiment [2]; below 50% in experiment [3]; at least 50% in experiment [4]; below 50% in experiment [5]; at least 50% in experiment [6]; below 50% in experiment [7].
As to `CC(=O)c1cc2cc(NCc3cc(NC(=O)c4ccc(C)c(C(F)(F)F)c4)ccc3C)cnc2[nH]1` [OR0890, N-{3-[(2-Acetyl-1H-pyrrolo[2,3-b]pyridin-5-ylamino)-methyl]-4-methyl-phenyl}-4-methyl-3-trifluoromethyl-benzamide], the EC50 in experiment [1] (HepG2, 72 h) lay in the range of 0.1 to 1 µM; in experiment [8] (72 h), 0.1 to 1 µM. Further, the inhibition at 0.1 µM is at least 50% in experiment [2]; below 50% in experiment [3]; below 50% in experiment [4]; at least 50% in experiment [5]; at least 50% in experiment [6]; below 50% in experiment [7].
On to `CC(=O)c1cc2cc(NCc3cc(NC(=O)c4ccc(Cl)c(C(F)(F)F)c4)ccc3C)cnc2[nH]1` [OR0891, N-{3-[(2-Acetyl-1H-pyrrolo[2,3-b]pyridin-5-ylamino)-methyl]-4-methyl-phenyl}-4-chloro-3-trifluoromethyl-benzamide], for which the EC50 lay within 0.1 to 1 µM in experiment [1] (HepG2, 72 h) and 0.1 to 1 µM in experiment [8] (72 h). Further, the inhibition at 0.1 µM in experiment [2], in experiment [3], in experiment [4], in experiment [5], in experiment [6] and in experiment [7] was below 50% each time.
Take `CC(=O)c1cc2cc(NCc3cc(NC(=O)Nc4cccc(C(F)(F)F)c4)ccc3C)cnc2[nH]1` [OR0895, 1-{3-[(2-Acetyl-1H-pyrrolo[2,3-b]pyridin-5-ylamino)-methyl]-4-methyl-phenyl}-3-(3-trifluoromethyl-phenyl)-urea]: the EC50 in experiment [1] (HepG2, 72 h) was 0.1 to 1 µM; in experiment [8] (72 hr, MTT), at least 1 µM. For the same compound, the inhibition at 0.1 µM in experiment [2] was below 50%; in experiment [3], below 50%; in experiment [4], below 50%; in experiment [5], below 50%; in experiment [6], at least 50%; in experiment [7] it was below 50%.
For the compound `CC(=O)c1cc2cc(NCc3cc(NC(=O)Nc4cccnc4)ccc3C)cnc2[nH]1` [OR0897, 1-{3-[(2-Acetyl-1H-pyrrolo[2,3-b]pyridin-5-ylamino)-methyl]-4-methyl-phenyl}-3-pyridin-3-yl-urea], the EC50 in experiment [1] (HepG2, 72 h) is at most 0.1 µM; in experiment [8] (72 hr, MTT), at least 1 µM. Also, the inhibition at 0.1 µM is below 50% in experiment [2]; below 50% in experiment [3]; at least 50% in experiment [4]; below 50% in experiment [5]; at least 50% in experiment [6]; below 50% in experiment [7].
For `CC(=O)c1cc2cc(NCc3cc(NC(=O)C4CC4)ccc3C)cnc2[nH]1` [OR0929, Cyclopropanecarboxylic acid {3-[(2-acetyl-1H-pyrrolo[2,3-b]pyridin-5-ylamino)-methyl]-4-methyl-phenyl}-amide], the EC50 is at least 1 µM in experiment [1] (HepG2, 72 hr, MTT) and at least 1 µM in experiment [8] (72 hr, MTT). Also, the inhibition at 0.1 µM in experiment [2], in experiment [3], in experiment [4], in experiment [5], in experiment [6] and in experiment [7] was below 50% throughout.
With `CC(=O)c1cc2cc(NCc3cc(NS(=O)(=O)c4cccc(C(F)(F)F)c4)ccc3C)cnc2[nH]1` [OR0930, N-{3-[(2-Acetyl-1H-pyrrolo[2,3-b]pyridin-5-ylamino)-methyl]-4-methyl-phenyl}-3-trifluoromethyl-benzenesulfonamide], the EC50 in experiment [1] (HepG2, 72 hr, MTT) is at least 1 µM; in experiment [8] (72 hr, MTT) it was at least 1 µM. Moreover, the inhibition at 0.1 µM in experiment [2], in experiment [3], in experiment [4], in experiment [5], in experiment [6] and in experiment [7] was below 50% each time.
As for `CC(=O)c1cc2cc(NCc3cccc(NC(=O)c4cncc(C(F)(F)F)c4)c3)cnc2[nH]1` [OR0950, N-{3-[(2-Acetyl-1H-pyrrolo[2,3-b]pyridin-5-ylamino)-methyl]-phenyl}-5-trifluoromethyl-nicotinamide], the EC50 in experiment [1] (HepG2, 72 h) was 0.1 to 1 µM; in experiment [8] (72 hr, MTT), at least 1 µM. Besides, the inhibition at 0.1 µM in experiment [2] was below 50%; in experiment [3], below 50%; in experiment [4], at least 50%; in experiment [5], below 50%; in experiment [6], at least 50%; in experiment [7], at least 50%.
With `CC(=O)c1cc2cc(NC(=O)c3cc(NC(=O)Nc4cccc(C(F)(F)F)c4)ccc3C)cnc2[nH]1` [OR0951, N-(2-Acetyl-1H-pyrrolo[2,3-b]pyridin-5-yl)-2-methyl-5-[3-(3-trifluoromethyl-phenyl)-ureido]-benzamide], the EC50 in experiment [1] (HepG2, 72 h) is at most 0.1 µM; in experiment [8] (72 hr, MTT), at least 1 µM. Also, the inhibition at 0.1 µM in experiment [2], in experiment [3], in experiment [4], in experiment [5], in experiment [6] and in experiment [7] was below 50% each time.
For `CC(=O)c1cc2cc(NCc3cc(NC(=O)Cc4cccc(C(F)(F)F)c4)ccc3C)cnc2[nH]1` [OR0968, N-{3-[(2-Acetyl-1H-pyrrolo[2,3-b]pyridin-5-ylamino)-methyl]-4-methyl-phenyl}-2-(3-trifluoromethyl-phenyl)-acetamide], the half-maximal effective concentration (EC50) is 0.1 to 1 µM in experiment [1] (HepG2, 72 h) and at least 1 µM in experiment [8] (72 hr, MTT). For the same compound, the inhibition at 0.1 µM in experiment [2] was below 50%; in experiment [3], below 50%; in experiment [4], at least 50%; in experiment [5] it was below 50%; in experiment [6], at least 50%; in experiment [7], below 50%.
As to `CC(=O)c1cc2cc(NCc3cc(NC(=O)c4ccc5[nH]nnc5c4)ccc3C)cnc2[nH]1` [OR0979, 1H-Benzotriazole-5-carboxylic acid {3-[(2-acetyl-1H-pyrrolo[2,3-b]pyridin-5-ylamino)-methyl]-4-methyl-phenyl}-amide], the EC50 in experiment [1] (HepG2, 72 hr, MTT) was at least 1 µM; in experiment [8] (72 hr, MTT), at least 1 µM. In addition, the inhibition at 0.1 µM was below 50% in experiment [2]; below 50% in experiment [3]; at least 50% in experiment [4]; below 50% in experiment [5]; at least 50% in experiment [6]; below 50% in experiment [7].
`CC(=O)c1cc2cc(NCc3cc(NC(=O)c4ccc5[nH]ccc5c4)ccc3C)cnc2[nH]1` [OR0980, 1H-Indole-5-carboxylic acid {3-[(2-acetyl-1H-pyrrolo[2,3-b]pyridin-5-ylamino)-methyl]-4-methyl-phenyl}-amide]: the EC50 was 0.1 to 1 µM in experiment [1] (HepG2, 72 h) and at least 1 µM in experiment [8] (72 hr, MTT). The inhibition at 0.1 µM in experiment [2] was below 50%; in experiment [3], below 50%; in experiment [4], at least 50%; in experiment [5], below 50%; in experiment [6] it was at least 50%; in experiment [7] it was below 50%.
`CC(=O)c1cc2cc(NCc3cc(NC(=O)c4cc[nH]c4)ccc3C)cnc2[nH]1` [OR0986, 1H-Pyrrole-3-carboxylic acid {3-[(2-acetyl-1H-pyrrolo[2,3-b]pyridin-5-ylamino)-methyl]-4-methyl-phenyl}-amide]: the EC50 is at least 1 µM in experiment [1] (HepG2, 72 hr, MTT) and at least 1 µM in experiment [8] (72 hr, MTT). Further, the inhibition at 0.1 µM was below 50% in experiment [2]; below 50% in experiment [3]; at least 50% in experiment [4]; below 50% in experiment [5]; at least 50% in experiment [6]; below 50% in experiment [7].

For the origin of these results see US9403823B2, “Protein kinase inhibitors” (ORIBASE PHARMA, priority 2012, dated 2016).
